Assay results taken from patent US5861480A, “Antimicrobial proteins from aralia and impatiens” (Zeneca Limited, priority 1994, dated 1999).

Key:
Type in all cases: cell-based
[1] = test system: A longipes (Alternaria lonaives CBS62083); experiment: Antifungal activity assay (microspectrophotometry), A longipes; conditions: 48 h
[2] = test system: Botrytis cinerea MUCL 30158; experiment: Antifungal activity assay (microspectrophotometry), B cinerea; conditions: 48 h
[3] = test system: B maydis (Bipolaris mavdis HM-10); experiment: Antifungal activity assay (microspectrophotometry), B maydis; conditions: Medium A (1/2 PDB), 48 h
[4] = test system: Cercospora beticola strain K897; experiment: Antifungal activity assay (microspectrophotometry), C beticola; conditions: Medium A (1/2 PDB), 48 h
[5] = test system: C graminicola (Colletotrichum Qraminicola CG-17); experiment: Antifungal activity assay (microspectrophotometry), C graminicola; conditions: Medium A (1/2 PDB), 48 h
[6] = test system: C sphaerospermum (Cladosnorium sphaerospermum KO791); experiment: Antifungal activity assay (microspectrophotometry), C sphaerospermum; conditions: 48 h
[7] = test system: Fusarium culmorum IMI 180420; experiment: Antifungal activity assay (microspectrophotometry), F culmorum; conditions: 48 h
[8] = test system: F graminearum (Fusarium craminearum FR-12); conditions: Medium A (1/2 PDB), 48 h
[9] = test system: Fusarium moniliforme FM-9; experiment: Antifungal activity assay (microspectrophotometry), F moniliforme; conditions: Medium A (1/2 PDB), 48 h
[10] = test system: P digitatum (Penicillium dipitatum (K0879)); experiment: Antifungal activity assay (microspectrophotometry), P digitatum; conditions: 48 h
Stenocarpella maydis = experiment: Antifungal activity assay (microspectrophotometry), S maydis; conditions: Medium A (1/2 PDB), 48 h
[11] = test system: Sphacelotheca reiliana HS; experiment: Antifungal activity assay (microspectrophotometry), S reiliana; conditions: Medium A (1/2 PDB), 48 h
[12] = test system: Septoria tritici (K1097D); experiment: Antifungal activity assay (microspectrophotometry), S tritici; conditions: 48 h
Trichoderma viride K1127 = experiment: Antifungal activity assay (microspectrophotometry), T viride; conditions: 48 h
[13] = test system: Verticillium albo-atrum K0937; experiment: Antifungal activity assay (microspectrophotometry), V albo-atrum; conditions: 48 h
[14] = test system: Verticillium dahliae MUCL 19210; experiment: Antifungal activity assay (microspectrophotometry), V dahliae; conditions: Medium A (1/2 PDB), 48 h
[15] = test system: Bacillus megaterium ATCC 13632; experiment: Antibacterial activity assay (microspectrophotometry), B megaterium; conditions: bacterial suspension in soft nutrient agarose, 24 hours at 28° C.
[16] = test system: Escherichia coli strain HB101; experiment: Antibacterial activity assay (microspectrophotometry), E coli; conditions: bacterial suspension in soft nutrient agarose, 24 hours at 28° C.
[17] = test system: Saccharomyces cerevisiae JRY188; experiment: Anti-yeast activity assay, S cerevisiae
Candida albicans KA-1 = experiment: Anti-yeast activity assay, C albicans
plant pathogenic fungi = experiment: Antifungal potency on different plant pathogenic fungi (summary over the panel); conditions: high salt medium (medium B)
[18] = Medium B (1/2 PDB + 1 mM CaCl2 and 50 mM KCl)

Substance	IC50 (growth inhibition) A longipes ([1]; Medium A (1/2 PDB))	IC50 (growth inhibition) A longipes [1, 18]	IC50 (growth inhibition) B cinerea ([2]; Medium A (1/2 PDB))	IC50 (growth inhibition) B cinerea [2, 18]	IC50 (growth inhibition) C beticola [4]	IC50 (growth inhibition) C sphaerospermum ([6]; Medium A (1/2 PDB))	IC50 (growth inhibition) C sphaerospermum [6, 18]	IC50 (growth inhibition) F culmorum ([7]; Medium A (1/2 PDB))	IC50 (growth inhibition) F culmorum [7, 18]	IC50 (growth inhibition) P digitatum ([10]; Medium A (1/2 PDB))	IC50 (growth inhibition) P digitatum [10, 18]	IC50 (growth inhibition) S tritici ([12]; Medium A (1/2 PDB))	IC50 (growth inhibition) S tritici [12, 18]	IC50 (growth inhibition) T viride (Trichoderma viride K1127; Medium A (1/2 PDB))	IC50 (growth inhibition) T viride (Trichoderma viride K1127; [18])	IC50 (growth inhibition) V albo-atrum ([13]; Medium A (1/2 PDB))	IC50 (growth inhibition) V albo-atrum [13, 18]	other results
Ib-AMP1: Impatiens balsamina antimicrobial protein 1, purified from I balsamina seeds; amino acid sequence SEQ ID NO 10 (QWGRRCCGWGPGRRYCVRWC)	3 µg/mL	50 µg/mL	12 µg/mL	> 200 µg/mL	1.5 µg/mL	1.5 µg/mL	50 µg/mL	1.5 µg/mL	50 µg/mL	3 µg/mL	200 µg/mL	1 µg/mL	50 µg/mL	6 µg/mL	> 200 µg/mL	3 µg/mL	> 200 µg/mL	IC50 (growth inhibition) B maydis [3]: 7 µg/mL; IC50 (growth inhibition) C graminicola [5]: 2 µg/mL; IC50 (growth inhibition) F graminearum [8]: 3 µg/mL; IC50 (growth inhibition) F moniliforme [9]: 20 µg/mL; IC50 (growth inhibition) S maydis (Stenocarpella maydis): 5 µg/mL; IC50 (growth inhibition) S reiliana [11]: 4 µg/mL; IC50 (growth inhibition) V dahliae [14]: 1 µg/mL; IC50 (growth inhibition) B megaterium [15]: 10 µg/mL; IC50 (growth inhibition) E coli [16]: > 800 µg/mL; IC50 (growth inhibition) S cerevisiae [17]: 20 µg/mL; IC50 (growth inhibition) C albicans (Candida albicans KA-1): 10 µg/mL; effect on the growth of C. albicans (in words) (Candida albicans KA-1): strongly inhibitied
Ib-AMP2: Impatiens balsamina antimicrobial protein 2, purified from I balsamina seeds; amino acid sequence SEQ ID NO 11 (QYGRRCCNWGPGRRYCKRWC)	12 µg/mL	> 200 µg/mL	25 µg/mL	> 200 µg/mL	3 µg/mL	6 µg/mL	> 200 µg/mL	6 µg/mL	> 200 µg/mL	6 µg/mL	> 200 µg/mL			12 µg/mL	> 200 µg/mL	12 µg/mL	> 200 µg/mL	
Ib-AMP3: Impatiens balsamina antimicrobial protein 3, purified from I balsamina seeds; amino acid sequence SEQ ID NO 12 (QYRHRCCAWGPGRKYCKRWC)	6 µg/mL	> 200 µg/mL	6 µg/mL	> 200 µg/mL		3 µg/mL	100 µg/mL	6 µg/mL	100 µg/mL	3 µg/mL	100 µg/mL			12 µg/mL	> 200 µg/mL	6 µg/mL	> 200 µg/mL	
Ib-AMP4: Impatiens balsamina antimicrobial protein 4, purified from I balsamina seeds; amino acid sequence SEQ ID NO 13 (QWGRRCCGWGPGRRYCRRWC)	3 µg/mL	12 µg/mL	6 µg/mL	200 µg/mL		1 µg/mL	6 µg/mL	1 µg/mL	6 µg/mL	3 µg/mL	25 µg/mL	1 µg/mL	12 µg/mL	6 µg/mL	150 µg/mL	6 µg/mL	50 µg/mL	antifungal activity in high salt medium (in words) (plant pathogenic fungi): fairly strong activity
